Experimental findings from patent US9487483B2, “Complement pathway modulators and uses thereof” (priority 2012, dated 2016) are described below.

Structures are written as SMILES.

Chain of Recombinant human factor D (P00746 26-253): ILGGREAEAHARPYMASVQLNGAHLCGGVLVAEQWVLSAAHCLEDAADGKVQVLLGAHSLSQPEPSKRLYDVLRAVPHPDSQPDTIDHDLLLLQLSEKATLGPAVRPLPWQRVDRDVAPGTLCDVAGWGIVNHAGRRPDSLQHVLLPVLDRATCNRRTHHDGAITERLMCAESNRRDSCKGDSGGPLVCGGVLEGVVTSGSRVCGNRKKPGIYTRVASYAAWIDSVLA

The first experiment concerns the target Recombinant human factor D (Homo sapiens (Human), UniProt P00746). The experiment in a line: biochemical. The class given is biochemical. The settings on record: Factor D inhibition data using Method 1; substrate Z-Lys-thiobenzyl, fluorescence readout; read-out: IC50.
Regarding `CC(=O)c1nn(CC(=O)N2[C@@H]3C[C@@H]3C[C@H]2C(=O)NC2CC(C)(C)C2)c2cnccc12` [Example 1, (1R,3S,5R)-2-[2-(3-Acetyl-pyrazolo[3,4-c]pyridin-1-yl)-acetyl]-2-aza-bicyclo[3.1.0]hexane-3-carboxylic acid (3,3-dimethyl-cyclobutyl)-amide], the IC50 (commonly the concentration that gives 50% inhibition) was 204 nM.

In the case of `CC(=O)c1nn(CC(=O)N2[C@@H]3C[C@@H]3C[C@H]2C(=O)NC2CC2(C)C)c2ncccc12` (stereo partly drawn) [Example 2, (1R,3S,5R)-2-[2-(3-Acetyl-pyrazolo[3,4-b]pyridin-1-yl)-acetyl]-2-aza-bicyclo[3.1.0]hexane-3-carboxylic acid (2,2-dimethyl-cyclopropyl)-amide], the IC50 is 6900 nM.

Consider `CC(=O)c1nn(CC(=O)N2[C@@H]3C[C@@H]3C[C@H]2C(=O)NC2CC2(F)F)c2ncccc12` (stereo partly drawn) [Example 3, (1R,3S,5R)-2-[2-(3-Acetyl-pyrazolo[3,4-b]pyridin-1-yl)-acetyl]-2-aza-bicyclo[3.1.0]hexane-3-carboxylic acid (2,2-difluoro-cyclopropyl)-amide], for which the IC50 is 4790 nM.

Turning to `CC(=O)c1nn(CC(=O)N2[C@@H]3C[C@@H]3C[C@H]2C(=O)N[C@@H]2C[C@@H]2F)c2ncccc12` [Example 4, (1R,3S,5R)-2-[2-(3-Acetyl-pyrazolo[3,4-b]pyridin-1-yl)-acetyl]-2-aza-bicyclo[3.1.0]hexane-3-carboxylic acid ((1R,2S)-2-fluoro-cyclopropyl)-amide], the IC50 came to 5130 nM.

With `CC(=O)c1nn(CC(=O)N2[C@@H]3C[C@@H]3C[C@H]2C(=O)NC2CC(C)(C)CC(C)(C)C2)c2ncccc12` [Example 6, (1R,3S,5R)-2-[2-(3-Acetyl-pyrazolo[3,4-b]pyridin-1-yl)-acetyl]-2-aza-bicyclo[3.1.0]hexane-3-carboxylic acid (3,3,5,5-tetramethyl-cyclohexyl)-amide], the IC50 turned out to be 56 nM.

For the compound `CC(=O)c1nn(CC(=O)N2[C@@H]3C[C@@H]3C[C@H]2C(=O)NC2CCOC(C)(C)C2)c2cnccc12` (stereo partly drawn) [Example 7, (1R,3S,5R)-2-[2-(3-Acetyl-pyrazolo[3,4-c]pyridin-1-yl)-acetyl]-2-aza-bicyclo[3.1.0]hexane-3-carboxylic acid (2,2-dimethyl-tetrahydro-pyran-4-yl)-amide], the IC50 amounted to 1680 nM.

On to `CC(=O)c1nn(CC(=O)N2[C@@H]3C[C@@H]3C[C@H]2C(=O)NC2CC(F)(F)C2)c2cnccc12` [Example 8, (1R,3S,5R)-2-[2-(3-Acetyl-pyrazolo[3,4-c]pyridin-1-yl)-acetyl]-2-aza-bicyclo[3.1.0]hexane-3-carboxylic acid (3,3-difluoro-cyclobutyl)-amide], for which the IC50 was 2390 nM.

With `CC(=O)c1nn(CC(=O)N2[C@@H]3C[C@@H]3C[C@H]2C(=O)NC2CCC(F)(F)CC2)c2cnccc12` [Example 11, (1R,3S,5R)-2-[2-(3-Acetyl-pyrazolo[3,4-c]pyridin-1-yl)-acetyl]-2-aza-bicyclo[3.1.0]hexane-3-carboxylic acid (4,4-difluoro-cyclohexyl)-amide], the IC50 came out at 3020 nM.

The same experiment, now with this note: IC50, Factor D inhibition data using Method 1; substrate Z-Lys-thiobenzyl, fluorescence readout.
For `COC1(C(F)(F)F)CCCC(NC(=O)[C@@H]2C[C@H]3C[C@H]3N2C(=O)Cn2nc(C(N)=O)c3ccccc32)C1` (single isomer, unassigned) [Example 39], the IC50 turned out to be 85 nM.

On to `COC1(C(F)(F)F)CCCC(NC(=O)[C@@H]2C[C@H]3C[C@H]3N2C(=O)Cn2nc(C(N)=O)c3ccccc32)C1` (single isomer, unassigned) [Example 40], for which the IC50 is 4470 nM.

As to `NC(=O)c1nn(CC(=O)N2[C@@H]3C[C@@H]3C[C@H]2C(=O)NC2CCCC3(CC3)C2)c2ccccc12` (single isomer, unassigned) [Example 57], the IC50 was found to be 1930 nM.

For `NC(=O)c1nn(CC(=O)N2[C@@H]3C[C@@H]3C[C@H]2C(=O)NC2CCCC3(CC3)C2)c2ccccc12` (single isomer, unassigned) [Example 58], the IC50 turned out to be 41 nM.

As to `CC1(C)CCC(NC(=O)[C@@H]2C[C@H]3C[C@H]3N2C(=O)Cn2nc(C(N)=O)c3ccncc32)C1` (single isomer, unassigned) [Example 67], the IC50 was determined as 318 nM.

For `CC1(C)CCC(NC(=O)[C@@H]2C[C@H]3C[C@H]3N2C(=O)Cn2nc(C(N)=O)c3ccncc32)C1` (single isomer, unassigned) [Example 68], the IC50 was 1920 nM.

For the compound `NC(=O)c1nn(CC(=O)N2C[C@H](F)C[C@H]2C(=O)NC2CCCC3(CC3)C2)c2ccccc12` (single isomer, unassigned) [Example 92], the IC50 amounted to 2000 nM.

Take `NC(=O)c1nn(CC(=O)N2C[C@H](F)C[C@H]2C(=O)NC2CCCC3(CC3)C2)c2ccccc12` (single isomer, unassigned) [Example 93]: the IC50 amounted to 92 nM.

As to `CC(=O)c1nn(CC(=O)N2[C@H](C(=O)NC3CCCC4(CC4)C3)C[C@@]3(CO)C[C@@H]23)c2cnccc12` (single isomer, unassigned) [Example 113], the IC50 is 90 nM.

For the compound `CC(=O)c1nn(CC(=O)N2[C@H](C(=O)NC3CCCC4(CC4)C3)C[C@@]3(CO)C[C@@H]23)c2cnccc12` (single isomer, unassigned) [Example 114], the IC50 worked out at 1280 nM.

The same experiment, now with this note: read-out: IC50.
Regarding `COC1(C)CCCC(NC(=O)[C@@H]2C[C@H]3C[C@H]3N2C(=O)Cn2nc(C(N)=O)c3ccccc32)C1` (mixture of isomers) [Example 126, 1-(2-((1R,3S,5R)-3-(((1R,3S) and (1S,3R)-3-methoxy-3-methylcyclohexyl)carbamoyl)-2-azabicyclo[3.1.0]hexan-2-yl)-2-oxoethyl)-1H-indazole-3-carboxamide], the IC50 amounted to 200 nM.

On to `CC(=O)c1nn(CC(=O)N2[C@@H]3C[C@@H]3C[C@H]2C(=O)NC2CC(C)CC(C)(C)C2)c2ncccc12` (stereo partly drawn) [Example 5, (1R,3S,5R)-2-[2-(3-Acetyl-pyrazolo[3,4-b]pyridin-1-yl)-acetyl]-2-aza-bicyclo[3.1.0]hexane-3-carboxylic acid (3,3,5-trimethyl-cyclohexyl)-amide], for which the half-maximal inhibitory concentration (IC50) was 22 nM.

With `CC(=O)c1nn(CC(=O)N2[C@@H]3C[C@@H]3C[C@H]2C(=O)NC2CCCC(F)(F)C2)c2cnccc12` (stereo partly drawn) [Example 9, (1R,3S,5R)-2-[2-(3-Acetyl-pyrazolo[3,4-c]pyridin-1-yl)-acetyl]-2-aza-bicyclo[3.1.0]hexane-3-carboxylic acid (3,3-difluoro-cyclohexyl)-amide], the IC50 is 1480 nM.

`CC(=O)c1nn(CC(=O)N2[C@@H]3C[C@@H]3C[C@H]2C(=O)NC2(CO)CCCCC2)c2cnccc12` [Example 10, (1R,3S,5R)-2-[2-(3-Acetyl-pyrazolo[3,4-c]pyridin-1-yl)-acetyl]-2-aza-bicyclo[3.1.0]hexane-3-carboxylic acid (1-hydroxymethyl-cyclohexyl)-amide]: the IC50 stood at 1820 nM.

On to `CC(=O)c1nn(CC(=O)N2[C@@H]3C[C@@H]3C[C@H]2C(=O)N[C@@H]2CC[C@@H](C(N)=O)C2)c2ncccc12` [Example 12, (1R,3S,5R)-2-[2-(3-Acetyl-pyrazolo[3,4-b]pyridin-1-yl)-acetyl]-2-aza-bicyclo[3.1.0]hexane-3-carboxylic acid ((1R,3R)-3-carbamoyl-cyclopentyl)-amide], for which the IC50 was 12700 nM.
